Results reported in US20250313563A1, “GLYCOGEN SYNTHASE KINASE 3 INHIBITORS AND USES THEREOF” (The Broad Institute, Inc., priority 2022, published 2025).
Where two headings read alike, the source gives them in different places.

Columns and labels:
[1] = target: GSK3b (GST-full length GSK3b) (Homo sapiens (Human), UniProt P49841); assay: GSK3b TR-FRET kinase assay; assay type: biochemical
Procedure, shortened: (§1)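 IC50 came from the normalized 665/615 nm TR-FRET ratio plotted against log compound concentration. The Tb-labelled pSer641 antibody and streptavidin-d2 detected phosphorylation of biotinylated S645-primed glycogen synthase peptide (200 nM) by 1 nM full-length GST-kinase. ATP was 4 μM for α, 2 μM for β, or 1 mM.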

[2] = target: GSK3α (GST-full length GSK3α) (Homo sapiens (Human), UniProt P49840); assay: GSK3α TR-FRET kinase assay; assay type: biochemical
Procedure, shortened: as §1

[3] = 1 nM GSK3b, 2 μM ATP, 30 minute preincubation, read-out: GSK3-B TR-FRET BIOCHEMICAL (TR-FRET), IC50
[4] = 1 nM GSK3α, 4 μM ATP, 30 minute preincubation, read-out: GSK3-A TR-FRET BIOCHEMICAL (TR-FRET), IC50
[5] = read-out: GSK3-B (TR-FRET 1 mM ATP), GMean, IC50, 1 mM ATP, geometric mean
[6] = read-out: GSK3-A (TR-FRET 1 mM ATP), GMean, IC50, 1 mM ATP, geometric mean
[7] = 1 nM GSK3b, 2 μM ATP, 30 minute preincubation, Table 16, read-out: GSK3-B TR-FRET BIOCHEMICAL (TR-FRET)
[8] = 1 nM GSK3α, 4 μM ATP, 30 minute preincubation, Table 16, read-out: GSK3-A TR-FRET BIOCHEMICAL (TR-FRET)
[9] = 1 nM GSK3b, 2 μM ATP, 30 minute preincubation, geometric mean, read-out: GSK3-B TR-FRET BIOCHEMICAL (TR-FRET), GMean, IC50
[10] = 1 nM GSK3α, 4 μM ATP, 30 minute preincubation, geometric mean, read-out: GSK3-A TR-FRET BIOCHEMICAL (TR-FRET), GMean, IC50

Chain of GSK3b (GST-full length GSK3b) (P49841 whole entry): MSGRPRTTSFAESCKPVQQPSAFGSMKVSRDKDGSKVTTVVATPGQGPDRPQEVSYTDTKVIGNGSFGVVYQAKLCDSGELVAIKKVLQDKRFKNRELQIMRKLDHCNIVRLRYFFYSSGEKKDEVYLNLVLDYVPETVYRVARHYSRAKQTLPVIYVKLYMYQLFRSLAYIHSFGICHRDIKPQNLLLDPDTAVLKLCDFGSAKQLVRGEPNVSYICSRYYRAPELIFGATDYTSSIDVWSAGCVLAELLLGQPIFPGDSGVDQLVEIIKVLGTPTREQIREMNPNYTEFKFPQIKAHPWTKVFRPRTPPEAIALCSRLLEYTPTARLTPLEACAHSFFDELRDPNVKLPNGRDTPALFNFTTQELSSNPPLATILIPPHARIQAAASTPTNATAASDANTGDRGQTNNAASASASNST
Chain of GSK3α (GST-full length GSK3α) (P49840 whole entry): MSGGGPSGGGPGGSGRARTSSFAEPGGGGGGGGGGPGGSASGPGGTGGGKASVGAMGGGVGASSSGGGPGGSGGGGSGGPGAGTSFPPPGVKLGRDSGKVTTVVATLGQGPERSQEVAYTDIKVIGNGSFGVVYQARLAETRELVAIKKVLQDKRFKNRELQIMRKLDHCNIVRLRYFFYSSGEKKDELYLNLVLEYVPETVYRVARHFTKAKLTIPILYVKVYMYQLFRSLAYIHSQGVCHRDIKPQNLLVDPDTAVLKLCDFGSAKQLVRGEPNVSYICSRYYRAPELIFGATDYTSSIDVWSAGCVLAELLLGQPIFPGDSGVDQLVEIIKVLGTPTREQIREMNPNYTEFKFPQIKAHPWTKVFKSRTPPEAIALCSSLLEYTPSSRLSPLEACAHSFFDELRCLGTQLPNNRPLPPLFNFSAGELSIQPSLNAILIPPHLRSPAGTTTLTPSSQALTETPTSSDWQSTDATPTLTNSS

IC50 [1, 3] [nM] | IC50 [2, 4] [nM] | IC50 [1, 5] [nM] | IC50 [2, 6] [nM] | IC50 [1, 7] [nM] | IC50 [2, 8] [nM] | SMILES | also measured
≤ 100 | ≤ 100 | – | – | – | – | CC1(C)CC(=O)C2=C(C1)Nc1n[nH]cc1C21COC2(CN(C(=O)CC3CCCC3)C2)C1 (centres unmarked) [Compound 947293] | –
100 to 1000 | ≤ 100 | – | – | – | – | Cc1ccc(C(=O)N2CC3(C2)CC2(CO3)C3=C(CC(C)(C)CC3=O)Nc3n[nH]cc32)c(C)c1 (centres unmarked) [Compound 947294] | –
≤ 100 | ≤ 100 | – | – | – | – | Cc1cc(C)cc(C(=O)N2CC3(C2)CC2(CO3)C3=C(CC(C)(C)CC3=O)Nc3n[nH]cc32)c1 (centres unmarked) [Compound 947296] | –
≤ 100 | ≤ 100 | – | – | – | – | CC1(C)CC(=O)C2=C(C1)Nc1n[nH]cc1C21COC2(CN(C(=O)C3CC3)C2)C1 (centres unmarked) [Compound 947297] | –
≤ 100 | ≤ 100 | – | – | – | – | CCCC(=O)N1CC2(C1)CC1(CO2)C2=C(CC(C)(C)CC2=O)Nc2n[nH]cc21 (centres unmarked) [Compound 947300] | –
1000 to 5000 | 100 to 1000 | – | – | – | – | CC(C)(C)CC(=O)N1CC2(C1)CC1(CO2)C2=C(CC(C)(C)CC2=O)Nc2n[nH]cc21 (centres unmarked) [Compound 947301] | –
≤ 100 | ≤ 100 | – | – | – | – | CC1(C)CC(=O)C2=C(C1)Nc1n[nH]cc1C21COC2(CN(C(=O)C(C)(C)C)C2)C1 (centres unmarked) [Compound 947303] | –
≤ 100 | ≤ 100 | – | – | – | – | CC1(C)CC(=O)C2=C(C1)Nc1n[nH]cc1C21COC2(CN(C(=O)C3(C)CCCC3)C2)C1 (centres unmarked) [Compound 947307] | –
– | – | ≤ 100 | ≤ 100 | ≤ 100 | ≤ 100 | CC[C@]1(c2cccc(-c3ccncc3C)c2)C2=C(CC(C)(C)CC2=O)Nc2n[nH]c(C(F)(F)F)c21 [Compound 947324] | –
– | – | ≤ 100 | ≤ 100 | ≤ 100 | ≤ 100 | CCC1(c2cccc(-c3ccnc(C)c3C)c2)C2=C(CC(C)(C)CC2=O)Nc2n[nH]c(C(F)(F)F)c21 (centres unmarked) [Compound 947329] | –
≤ 100 | ≤ 100 | 100 to 1000 | 100 to 1000 | – | – | CCC1(c2cccc(S(C)(=O)=O)c2)C2=C(CC(C)(C)NC2=O)Nc2n[nH]c(C)c21 (centres unmarked) [Compound 947395] | –
– | – | – | – | ≤ 100 | ≤ 100 | CCC1(c2cccc(-c3cnnn3C(C)C)c2)C2=C(CC(C)(C)CC2=O)Nc2n[nH]cc21 (centres unmarked) [Compound 947397] | –
– | – | – | – | ≤ 100 | ≤ 100 | CCC1(c2cccc(-c3cnnn3C)c2)C2=C(CC(C)(C)CC2=O)Nc2n[nH]cc21 (centres unmarked) [Compound 947398] | –
– | – | 100 to 1000 | ≤ 100 | – | – | CCC1(c2cccc(-c3cnn(C)c3)c2)C2=C(CC(C)(C)NC2=O)Nc2n[nH]c(C(F)(F)F)c21 (centres unmarked) [Compound 947405] | IC50 [1, 9]: ≤ 100 nM; IC50 [2, 10]: ≤ 100 nM
– | – | – | – | 1000 to 5000 | ≤ 100 | CCC1(c2cccc(-c3ccnc(C)c3)c2)C2=C(CC3(CCOC3)CC2=O)Nc2n[nH]cc21 (centres unmarked) [Compound 947407] | –

Further lines, the molecule ahead of its results:

SMILES | IC50 [1, 3] [nM] | IC50 [2, 4] [nM] | IC50 [1, 5] [nM] | IC50 [2, 6] [nM] | IC50 [1, 7] [nM] | IC50 [2, 8] [nM] | also measured
CC1(C)CC(=O)C2=C(C1)Nc1n[nH]cc1C21COC2(CN(C(=O)C3CCCCC3)C2)C1 (centres unmarked) [Compound 947291] | 100 to 1000 | ≤ 100 | – | – | – | – | –
CC1(C)CC(=O)C2=C(C1)Nc1n[nH]cc1C21COC2(CN(C(=O)c3ccc(F)cc3)C2)C1 (centres unmarked) [Compound 947292] | ≤ 100 | ≤ 100 | – | – | – | – | –
Cc1ccccc1CC(=O)N1CC2(C1)CC1(CO2)C2=C(CC(C)(C)CC2=O)Nc2n[nH]cc21 (centres unmarked) [Compound 947295] | ≤ 100 | ≤ 100 | – | – | – | – | –
CC1(C)CC(=O)C2=C(C1)Nc1n[nH]cc1C21COC2(CN(C(=O)CC3CC3)C2)C1 (centres unmarked) [Compound 947298] | ≤ 100 | ≤ 100 | – | – | – | – | –
CC1(C)CC(=O)C2=C(C1)Nc1n[nH]cc1C21COC2(CN(C(=O)CC3CCC3)C2)C1 (centres unmarked) [Compound 947299] | ≤ 100 | ≤ 100 | – | – | – | – | –
CC(C)CC(=O)N1CC2(C1)CC1(CO2)C2=C(CC(C)(C)CC2=O)Nc2n[nH]cc21 (centres unmarked) [Compound 947302] | ≤ 100 | ≤ 100 | – | – | – | – | –
CC(C)C(=O)N1CC2(C1)CC1(CO2)C2=C(CC(C)(C)CC2=O)Nc2n[nH]cc21 (centres unmarked) [Compound 947304] | 100 to 1000 | ≤ 100 | – | – | – | – | –
CC1(C)CC(=O)C2=C(C1)Nc1n[nH]cc1C21COC2(CN(C(=O)CC3CCCCC3)C2)C1 (centres unmarked) [Compound 947305] | ≤ 100 | ≤ 100 | – | – | – | – | –
CC1(C)CC(=O)C2=C(C1)Nc1n[nH]cc1C21COC2(CN(C(=O)Cc3ccccc3)C2)C1 (centres unmarked) [Compound 947306] | ≤ 100 | ≤ 100 | ≤ 100 | ≤ 100 | – | – | –
CC1(C)CC(=O)C2=C(C1)Nc1n[nH]cc1C21COC2(CN(C(=O)C3CCCCCC3)C2)C1 (centres unmarked) [Compound 947308] | 100 to 1000 | ≤ 100 | – | – | – | – | –
CC[C@]1(c2cccc(-c3ccncc3F)c2)C2=C(CC(C)(C)CC2=O)Nc2n[nH]c(C(F)(F)F)c21 [Compound 947326] | – | – | ≤ 100 | ≤ 100 | ≤ 100 | ≤ 100 | –
CCC1(c2cccc(-c3ccnc(C)c3C)c2)C2=C(CC(C)(C)CC2=O)Nc2n[nH]c(C(F)(F)F)c21 (centres unmarked) [Compound 947328] | – | – | – | – | 100 to 1000 | 100 to 1000 | –
CCC1(c2cccc(C(F)(F)F)c2)C2=C(CCN(c3ccc(OC)cc3)C2=O)Nc2n[nH]cc21 (centres unmarked) [Compound 947332] | 100 to 1000 | ≤ 100 | – | – | – | – | –
CCN(c1cccc(C2(CC)C3=C(CC(C)(C)CC3=O)Nc3n[nH]cc32)c1)c1ncccn1 (centres unmarked) [Compound 947333] | – | – | 100 to 1000 | ≤ 100 | ≤ 100 | ≤ 100 | –
CCN(c1cccc([C@@]2(CC)C3=C(CC(C)(C)CC3=O)Nc3n[nH]cc32)c1)c1ncccn1 [Compound 947334] | – | – | – | – | 1000 to 5000 | 100 to 1000 | –
CCC1(c2cccc(-c3cc(C)ncc3C)c2)C2=C(CC(C)(C)CC2=O)Nc2n[nH]c(C(F)(F)F)c21 (centres unmarked) [Compound 947363] | – | – | 100 to 1000 | ≤ 100 | ≤ 100 | ≤ 100 | –
CCC1(c2cccc(-c3ccnn3C)c2)C2=C(CC(C)(C)CC2=O)Nc2n[nH]c(C(F)(F)F)c21 (centres unmarked) [Compound 947365] | – | – | – | – | 1000 to 5000 | 100 to 1000 | –
CC[C@@]1(c2cccc(-c3ccnn3C)c2)C2=C(CC(C)(C)CC2=O)Nc2n[nH]c(C(F)(F)F)c21 [Compound 947372] | – | – | ≤ 100 | ≤ 100 | ≤ 100 | ≤ 100 | –
CC[C@]1(c2cccc(-c3cc(C)nn3C)c2)C2=C(CC(C)(C)CC2=O)Nc2n[nH]c(C(F)(F)F)c21 [Compound 947383] | – | – | – | – | > 5000 | 1000 to 5000 | –
CCC1(c2cccc(-c3ccnc(C)c3C)c2)C2=C(CC(C)(C)NC2=O)Nc2n[nH]c(C)c21 (centres unmarked) [Compound 947399] | – | – | – | – | – | – | IC50 [1, 9]: 1000 to 5000 nM; IC50 [2, 10]: 100 to 1000 nM
CCC1(c2cccc(Oc3ncccn3)c2)C2=C(CC(C)(C)CC2=O)Nc2n[nH]cc21 (centres unmarked) [Compound 947400] | – | – | – | – | ≤ 100 | ≤ 100 | –
CCC1(c2cccc(-c3ccnc(C)c3F)c2)C2=C(CC(C)(C)NC2=O)Nc2n[nH]c(C)c21 (centres unmarked) [Compound 947402] | – | – | – | – | – | – | IC50 [1, 9]: 100 to 1000 nM; IC50 [2, 10]: ≤ 100 nM
CCC1(c2cccc(-c3cnn(C)c3C)c2)C2=C(CC(C)(C)NC2=O)Nc2n[nH]c(C(F)(F)F)c21 (centres unmarked) [Compound 947403] | – | – | 100 to 1000 | ≤ 100 | – | – | IC50 [1, 9]: ≤ 100 nM; IC50 [2, 10]: ≤ 100 nM
CCC1(c2cccc(-c3ccncc3C)c2)C2=C(CC(C)(C)NC2=O)Nc2n[nH]c(C(F)(F)F)c21 (centres unmarked) [Compound 947404] | – | – | 100 to 1000 | ≤ 100 | – | – | IC50 [1, 9]: ≤ 100 nM; IC50 [2, 10]: ≤ 100 nM
CC[C@]1(c2cccc(-c3ccnc(C)c3)c2)C2=C(C[C@]3(CCOC3)NC2=O)Nc2n[nH]cc21 [Compound 947406] | – | – | > 5000 | 100 to 1000 | 100 to 1000 | ≤ 100 | –
